From BindingDB's records for doi:10.1021/acs.jnatprod.8b00507 (Chinese Academy of Sciences, 2019)

experiment: Inhibition of P-gp in doxorubicin-resistant human MCF7/ADR cells assessed as reversal of doxorubicin resistance by measuring doxorubicin IC50 incubated for 48 hrs by MTT assay (Rvb = doxorubicin alone = 64.8 +/- 2.1 uM)

IC50 [µM] | Structure (SMILES)
7.3 | C=C1[C@H](OC(=O)c2ccccc2)[C@H]2[C@@H](OC(C)=O)[C@@H](C)C[C@]2(OC(C)=O)C(=O)[C@@H](C)/C=C/C(C)(C)C(=O)[C@H](OC(=O)c2ccccc2)[C@H]1OC(C)=O
12.9 | C=C1[C@H](OC(C)=O)[C@H]2[C@@H](OC(=O)c3ccccc3)[C@](C)(OC(C)=O)C[C@]2(O)C(=O)[C@@H](C)/C=C/C(C)(C)C(=O)[C@H](OC(C)=O)[C@H]1OC(=O)C(C)C
9.9 | C=C1[C@H](OC(=O)c2ccccc2)[C@@H](OC(C)=O)[C@@H](OC(C)=O)C(C)(C)/C=C/[C@H](C)C(=O)[C@@]2(OC(C)=O)C[C@H](C)[C@H](OC(=O)c3ccccc3)[C@@H]2[C@H]1OC(C)=O
10.3 | C=C1[C@H](OC(C)=O)[C@H]2[C@@H](OC(=O)CC(C)=O)[C@@H](C)C[C@]2(O)C(=O)[C@@H](C)/C=C/C(C)(C)C(=O)[C@H](OC(C)=O)[C@H]1OC(=O)c1ccccc1
7.8 | C=C1[C@H](OC(C)=O)[C@H]2[C@@H](OC(=O)c3ccccc3)[C@](C)(O)C[C@]2(O)C(=O)[C@@H](C)/C=C/C(C)(C)C(=O)[C@H](OC(C)=O)[C@H]1OC(=O)c1ccccc1
13.1 | C=C1[C@H](OC(C)=O)CC(=O)C(C)(C)/C=C/[C@H](C)C(=O)[C@@]2(OC(C)=O)C[C@H](C)[C@H](OC(=O)c3ccccc3)[C@@H]2[C@H]1OC(C)=O
28 | C=C1[C@H](O)[C@H]2[C@@H](OC(=O)c3ccccc3)[C@](C)(O)C[C@]2(O)[C@H](OC(C)=O)[C@@H](C)/C=C/C(C)(C)C(=O)[C@H](OC(C)=O)[C@H]1OC(=O)c1ccccc1
9.6 | C=C1[C@H](OC(C)=O)[C@H]2[C@@H](OC(=O)c3ccccc3)[C@@H](C)C[C@]2(OC(C)=O)C(=O)[C@@H](C)/C=C/C(C)(C)C(=O)[C@H](OC(C)=O)[C@H]1OC(C)=O
25.3 | C=C1[C@H](OC(C)=O)[C@H]2[C@@H](OC(=O)c3ccccc3)[C@@H](C)C[C@]2(O)C(=O)[C@@H](C)/C=C/C(C)(C)C(=O)[C@H](O)[C@H]1OC(C)=O
14.2 | C=C1[C@H](OC(C)=O)CC(=O)C(C)(C)/C=C/[C@H](C)C(=O)[C@@]2(OC(C)=O)C[C@H](C)[C@H](OC(C)=O)[C@@H]2[C@H]1OC(=O)c1ccccc1
20.6 | C=C1[C@H](O)[C@H]2[C@@H](OC(=O)c3ccccc3)[C@](C)(OC(C)=O)C[C@]2(O)[C@H](OC(C)=O)[C@@H](C)/C=C/C(C)(C)C(=O)[C@H](OC(C)=O)[C@H]1OC(C)=O
21.6 | C=C1[C@H](OC(=O)c2ccccc2)[C@H]2[C@@H](OC(C)=O)[C@@H](C)C[C@]2(OC(C)=O)C(=O)[C@@H](C)/C=C/C(C)(C)C(=O)[C@H](O)[C@H]1OC(C)=O
5.3 | C=C1[C@H](OC(C)=O)[C@H]2[C@@H](OC(=O)c3ccccc3)[C@](C)(OC(C)=O)C[C@]2(O)C(=O)[C@@H](C)/C=C/C(C)(C)C(=O)[C@H](OC(=O)C(C)C)[C@H]1OC(C)=O
9.5 | C=C1[C@H](OC(C)=O)[C@H]2[C@@H](OC(=O)c3ccccc3)[C@@H](C)C[C@]2(OC(C)=O)C(=O)[C@@H](C)/C=C/C(C)(C)C(=O)[C@H](O)[C@H]1OC(=O)c1ccccc1
8 | C=C1[C@H](OC(C)=O)[C@H]2[C@@H](OC(=O)c3ccccc3)[C@@H](C)C[C@]2(OC(C)=O)C(=O)[C@@H](C)/C=C/C(C)(C)C(=O)[C@H](OC(C)=O)[C@H]1OC(=O)c1ccccc1
13.3 | C=C1[C@H](OC(C)=O)[C@H]2[C@@H](OC(=O)c3ccccc3)[C@@H](C)C[C@]2(OC(C)=O)C(=O)[C@@H](C)/C=C/C(C)(C)C(=O)[C@H](O)[C@H]1OC(C)=O
5 | C=C1[C@H](OC(C)=O)[C@H]2[C@@H](OC(=O)c3ccccc3)[C@](C)(O)C[C@]2(O)C(=O)[C@@H](C)/C=C/C(C)(C)C(=O)[C@H](OC(=O)C(C)C)[C@H]1OC(C)=O
